Target: full-length recombinant human FYN A (Homo sapiens (Human), UniProt P06241)
Test: ADP-Glo Kinase Assay of FYN kinase inhibition
Type: biochemical
Details: primary screen, initial compounds
In short: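 GST-tagged full-length FYN A (baculovirus, Sf9) at 3 pg preincubated 30 min RT with compound (10-point 3-fold series from 10 μM) in Tris pH 7.5/MgCl2 buffer. 12-mer tyrosine peptide plus 12.5 pmol ATP added, 90 min RT; ADP measured by ADP-Glo luminescence, IC50 from dose-response.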

Chain of full-length recombinant human FYN A (P06241 whole entry): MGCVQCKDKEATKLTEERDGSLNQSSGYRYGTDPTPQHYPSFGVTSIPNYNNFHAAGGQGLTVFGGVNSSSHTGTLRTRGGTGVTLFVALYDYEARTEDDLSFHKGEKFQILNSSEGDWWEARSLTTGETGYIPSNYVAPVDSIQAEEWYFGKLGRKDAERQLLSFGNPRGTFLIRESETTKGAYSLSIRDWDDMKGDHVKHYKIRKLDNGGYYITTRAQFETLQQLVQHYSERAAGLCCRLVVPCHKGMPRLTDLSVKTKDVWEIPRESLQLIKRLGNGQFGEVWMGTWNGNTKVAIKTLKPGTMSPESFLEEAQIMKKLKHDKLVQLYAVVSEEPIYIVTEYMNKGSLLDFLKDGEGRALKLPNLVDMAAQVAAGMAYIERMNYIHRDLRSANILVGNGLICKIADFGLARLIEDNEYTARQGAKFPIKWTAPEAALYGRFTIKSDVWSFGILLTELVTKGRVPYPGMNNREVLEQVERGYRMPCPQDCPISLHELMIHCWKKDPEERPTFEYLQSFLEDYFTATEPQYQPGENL

Row | Structure (SMILES) | IC50 [nM]
1 | COc1cc(-c2cnc3ccc(-c4cccc(OC(F)(F)F)c4)nn23)ccc1O [Compound 462, 2-methoxy-4-[6-[3-(trifluoro-methoxy)phenyl]imidazo[1,2-b]pyridazin-3-yl]phenol] | 835
2 | CN(C)CCNC(=O)c1cccc(-c2cnc3ccc(-c4cccc(CO)c4)nn23)c1 [Compound 463, N-(2-dimethylamino-ethyl)-3-[6-[3-(hydroxymethyl)phenyl]imidazo [1,2-b]pyridazin-3-yl]benzamide] | 816
3 | NC(=O)c1ccc(-c2cnc3ccc(Cc4ccc(F)c(F)c4)nn23)cc1 [Compound 464, 4-[6-[(3,4-difluorophenyl)methyl]imidazo [1,2-b]pyridazin-3-yl]benzamide] | 3070
4 | CC(=O)Nc1cccc(-c2ccc3ncc(-c4cccc(C(=O)NCCN(C)C)c4)n3n2)c1 [Compound 465, 3-[6-(3-acetamidophenyl)imidazo[1,2-b]pyridazin-3-yl]-N-(2-dimethylamino-ethyl)benzamide] | 3170
5 | COc1cc(-c2cnc3ccc(-c4cccc(C(F)(F)F)c4)nn23)ccc1O [Compound 466, 2-methoxy-4-[6-[3-(trifluoro-methyl)phenyl]imidazo[1,2-b]pyridazin-3-yl]phenol] | 1080
6 | COc1cncc(-c2cnc3ccc(Cc4ccccc4)nn23)c1 [Compound 467, 6-benzyl-3-(5-methoxy-3-pyridyl)imidazo [1,2-b]pyridazine] | 2670
7 | Cc1cccc(Cc2ccc3ncc(-c4ccc(C(N)=O)cc4)n3n2)c1 [Compound 468, 4-[6-(m-tolylmethyl)imidazo[1,2-b]pyridazin-3-yl]benzamide] | 3100
8 | COc1ccccc1-c1ccc2ncc(-c3cccc(C(=O)NCCN(C)C)c3)n2n1 [Compound 469, N-(2-dimethylamino-ethyl)-3-[6-(2-methoxyphenyl)imidazo[1,2-b]pyridazin-3-yl]benzamide] | 2140
9 | CN(C)CCNC(=O)c1cccc(-c2cnc3ccc(-c4cccc(Oc5ccccc5)c4)nn23)c1 [Compound 470, N-(2-dimethylamino-ethyl)-3-[6-(3-phenoxyphenyl)imidazo[1,2-b]pyridazin-3-yl]benzamide] | 19200
10 | Oc1cccc(-c2cnc3ccc(C4CC4)nn23)c1 [Compound 471, 3-(6-cyclo-propylimidazo[1,2-b]pyridazin-3-yl)phenol] | 1890
11 | COc1cc(-c2cnc3ccc(-c4cccc(F)c4)nn23)ccc1O [Compound 472, 4-[6-(3-fluoro-phenyl)imidazo [1,2-b]pyridazin-3-yl]-2-methoxy-phenol] | 281
12 | COc1cncc(-c2cnc3ccc(Cc4ccc(F)cc4)nn23)c1 [Compound 473, 6-[(4-fluoro-phenyl)methyl]-3-(5-methoxy-3-pyridyl)imidazo [1,2-b]pyridazine] | 4420
13 | O=C(NCCO)c1cccc(-c2ccc3ncc(-c4ccc(CO)cc4)n3n2)c1 [Compound 475, N-(2-hydroxyethyl)-3-[3-[4-(hydroxymethyl)phenyl]imidazo [1,2-b]pyridazin-6-yl]benzamide] | 2140
14 | COc1cc(-c2cnc3ccc(-c4cccc(C(N)=O)c4)nn23)ccc1O [Compound 476, 3-[3-(4-hydroxy-3-methoxy-phenyl)imidazo [1,2-b]pyridazin-6-yl]benzamide] | 223
15 | Cc1cccc(Cc2ccc3ncc(-c4cnn(C)c4)n3n2)c1 [Compound 477, 3-(1-methylpyrazol-4-yl)-6-(m-tolylmethyl) imidazo[1,2-b]pyridazine] | 1800
16 | CC(=O)c1cccc(-c2cnc3ccc(-c4cccc(C(=O)NCCO)c4)nn23)c1 [Compound 478, 3-[3-(3-acetylphenyl)imidazo[1,2-b]pyridazin-6-yl]-N-(2-hydroxyethyl) benzamide] | 629
17 | OCc1ccc(-c2cnc3ccc(Cc4ccccc4)nn23)cc1 [Compound 479, [4-(6-benzylimidazo [1,2-b]pyridazin-3-yl)phenyl] methanol] | 3230
18 | COc1cc(-c2cnc3ccc(Cc4ccc(F)cc4)nn23)ccc1O [Compound 480, 4-[6-[(4-fluorophenyl)methyl]imidazo [1,2-b]pyridazin-3-yl]-2-methoxy-phenol] | 2090
19 | Cn1cc(-c2cnc3ccc(Cc4ccc(F)cc4)nn23)cn1 [Compound 481, 6-[(4-fluorophenyl)methyl]-3-(1-methylpyrazol-4-yl)imidazo [1,2-b]pyridazine] | 1300
20 | O=C(NCCO)c1cccc(-c2ccc3ncc(-c4cccc(Cl)c4)n3n2)c1 [Compound 483, 3-[3-(3-chlorophenyl)imidazo[1,2-b]pyridazin-6-yl]-N-(2-hydroxyethyl) benzamide] | 30000
21 | Cc1cccc(Cc2ccc3ncc(-c4cccc(C(N)=O)c4)n3n2)c1 [Compound 484, 3-[6-(m-tolylmethyl)imidazo[1,2-b]pyridazin-3-yl]benzamide] | 2170
22 | CC(=O)c1cccc(-c2cnc3ccc(Cc4ccccc4)nn23)c1 [Compound 485, 1-[3-(6-benzylimidazo [1,2-b]pyridazin-3-yl)phenyl] ethanone] | 3970
23 | Nc1ccc(-c2cnc3ccc(Cc4ccccc4)nn23)cn1 [Compound 486, 5-(6-benzylimidazo [1,2-b]pyridazin-3-yl)pyridin-2-amine] | 3640

Second part, the compound after the results:

Row | IC50 [nM] | Structure (SMILES)
24 | 3880 | CN(C)CCNC(=O)c1cccc(-c2cnc3ccc(-c4ccoc4)nn23)c1 [Compound 487, N-(2-dimethylamino-ethyl)-3-[6-(3-furyl)imidazo [1,2-b]pyridazin-3-yl]benzamide]
25 | 14900 | CNC(=O)c1cccc(-c2ccc3ncc(-c4ccc(CO)cc4)n3n2)c1 [Compound 488, 3-[3-[4-(hydroxymethyl)phenyl]imidazo [1,2-b]pyridazin-6-yl]-N-methyl-benzamide]
26 | 1390 | COc1ccccc1-c1n[nH]c2nccc(-c3ccc(N4CCOCC4)cc3)c12 [Compound 489, 4-[4-[3-(2-methoxyphenyl)-1H-pyrazolo[3,4-b]pyridin-4-yl]phenyl] morpholine]
27 | 1280 | COc1ccccc1-c1n[nH]c2nccc(-c3ccc(F)c(Cl)c3)c12 [Compound 490, 4-(3-chloro-4-fluoro-phenyl)-3-(2-methoxy-phenyl)-1H-pyrazolo[3,4-b]pyridine]
28 | 2930 | COc1ccc(-c2ccnc3[nH]nc(-c4ccccc4OC)c23)cn1 [Compound 491, 3-(2-methoxyphenyl)-4-(6-methoxy-3-pyridyl)-1H-pyrazolo[3,4-b]pyridine]
29 | 6430 | COc1ncc(-c2ccnc3[nH]nc(-c4ccccc4OC)c23)cn1 [Compound 492, 3-(2-methoxyphenyl)-4-(2-methoxy-pyrimidin-5-yl)-1H-pyrazolo[3,4-b]pyridine]
30 | 3860 | CN(C)C(=O)c1ccc(-c2ccnc3[nH]nc(-c4cccc(F)c4)c23)cc1 [Compound 493, 4-[3-(3-fluorophenyl)-1H-pyrazolo[3,4-b]pyridin-4-yl]-N,N-dimethyl-benzamide]
31 | 11200 | CN(C)C(=O)c1ccc(-c2ccnc3[nH]nc(-c4ccsc4)c23)cc1 [Compound 494, N,N-dimethyl-4-[3-(3-thienyl)-1H-pyrazolo[3,4-b]pyridin-4-yl]benzamide]
32 | 8890 | CC(=O)Nc1ccc(-c2ccnc3[nH]nc(C4CC4)c23)cc1 [Compound 495, N-[4-(3-cyclopropyl-1H-pyrazolo[3,4-b]pyridin-4-yl)phenyl] acetamide]
33 | 18000 | Nc1cccc(-c2ccnc3[nH]nc(-c4ccncc4)c23)c1 [Compound 496, 3-[3-(4-pyridyl)-1H-pyrazolo[3,4-b]pyridin-4-yl]aniline]
34 | 3880 | OCc1ccc(-c2ccnc3[nH]nc(-c4cccc(F)c4)c23)cc1 [Compound 497]
35 | 2670 | COc1ccccc1-c1n[nH]c2nccc(-c3ccsc3)c12 [Compound 498, 3-(2-methoxyphenyl)-4-(3-thienyl)-1H-pyrazolo[3,4-b]pyridine]
36 | 2020 | COc1cc(-c2n[nH]c3nccc(-c4ccc(NC(C)=O)cc4)c23)cc(OC)c1OC [Compound 499, N-[4-[3-(3,4,5-trimethoxy-phenyl)-1H-pyrazolo[3,4-b]pyridin-4-yl]phenyl] acetamide]
37 | 1130 | COc1ccccc1-c1n[nH]c2nccc(/C=C/c3ccccc3)c12 [Compound 500, 3-(2-methoxyphenyl)-4-[(E)-styryl]-1H-pyrazolo[3,4-b]pyridine]
38 | 1350 | COc1ccccc1-c1n[nH]c2nccc(-c3cccc(F)c3)c12 [Compound 501, 4-(3-fluorophenyl)-3-[2-methoxy-phenyl)-1H-pyrazolo[3,4-b]pyridine]
39 | 1480 | COc1ccccc1-c1n[nH]c2nccc(-c3ccc(C(N)=O)cc3)c12 [Compound 502, 4-[3-(2-methoxyphenyl)-1H-pyrazolo[3,4-b]pyridin-4-yl]benzamide]
40 | 7110 | OCc1ccc(-c2ccnc3[nH]nc(-c4ccccc4)c23)cc1 [Compound 503, [4-(3-phenyl-1H-pyrazolo[3,4-b]pyridin-4-yl)phenyl] methanol]
41 | 852 | c1ccc(-c2n[nH]c3nccc(-c4cn[nH]c4)c23)cc1 [Compound 504, 3-phenyl-4-(1H-pyrazol-4-yl)-1H-pyrazolo[3,4-b]pyridine]
42 | 20900 | COc1cc(-c2n[nH]c3nccc(-c4ccc(C(C)C)cc4)c23)cc(OC)c1OC [Compound 505, 4-(4-isopropylphenyl)-3-(3,4,5-trimethoxy-phenyl)-1H-pyrazolo[3,4-b]pyridine]
43 | 30000 | Clc1cccc(-c2ccnc3[nH]nc(C4CC4)c23)c1 [Compound 506, 4-(3-chlorophenyl)-3-cyclopropyl-1H-pyrazolo[3,4-b]pyridine]
44 | 4850 | COc1ccccc1-c1n[nH]c2nccc(-c3cccc(C(=O)NCCN(C)C)c3)c12 [Compound 507, N-(2-dimethylamino-ethyl)-3-[3-(2-methoxyphenyl)-1H-pyrazolo[3,4-b]pyridin-4-yl]benzamide]
45 | 1670 | COc1ccccc1-c1n[nH]c2nccc(-c3cccc(CO)c3)c12 [Compound 508, [3-[3-(2-methoxyphenyl)-1H-pyrazolo[3,4-b]pyridin-4-yl]phenyl] methanol]

— patent publication US10688093B2, “Methods, compositions, and uses of novel Fyn kinase inhibitors” (priority 2015, dated 2020)
